Numbering of substitutions follows the chain as printed.
How the values were obtained:
Assay type in all cases: cell-based
[1] = biological target: T1, hP2X2R (human P2X2 receptor) (Homo sapiens, UniProt Q9UBL9, R130A)
T1 construct: gene P2RX2; hP2X2-L
T1 sequence (Q9UBL9 1-471 R130A): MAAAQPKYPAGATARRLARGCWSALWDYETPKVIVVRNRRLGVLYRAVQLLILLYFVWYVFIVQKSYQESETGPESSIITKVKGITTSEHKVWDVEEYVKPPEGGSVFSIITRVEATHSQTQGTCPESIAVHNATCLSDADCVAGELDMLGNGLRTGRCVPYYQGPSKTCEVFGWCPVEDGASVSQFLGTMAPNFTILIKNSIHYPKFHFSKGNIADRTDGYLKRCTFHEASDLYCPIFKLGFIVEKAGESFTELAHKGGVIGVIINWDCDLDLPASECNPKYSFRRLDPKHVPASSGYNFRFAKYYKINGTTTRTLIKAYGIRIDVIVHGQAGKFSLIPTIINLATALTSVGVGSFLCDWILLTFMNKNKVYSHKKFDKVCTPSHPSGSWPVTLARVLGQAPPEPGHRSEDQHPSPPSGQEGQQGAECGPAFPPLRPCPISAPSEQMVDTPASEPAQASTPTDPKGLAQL

[2] = biological target: T2, hP2X2R (human P2X2 receptor) (Homo sapiens, UniProt Q9UBL9)
T2 construct: gene P2RX2; hP2X2-L
T2 sequence (Q9UBL9 1-471): T1 sequence (Q9UBL9 1-471 R130A) with A130R

[3] = biological target: T3, hP2X2R (human P2X2 receptor) (Homo sapiens, UniProt Q9UBL9); assay: cryo-EM structure in nanodiscs; whole-cell patch clamp EC50 in EDTA ([…] with divalent cations)
T3 construct: gene P2RX2; hP2X2-L (Q9UBL9-1) with ATP4−; hP2X2-S (Q9UBL9-2) with Mg-ATP2−; homotrimer in MSP1E3D1 lipid nanodiscs
T3 sequence (Q9UBL9 1-404 isoform Q9UBL9-2): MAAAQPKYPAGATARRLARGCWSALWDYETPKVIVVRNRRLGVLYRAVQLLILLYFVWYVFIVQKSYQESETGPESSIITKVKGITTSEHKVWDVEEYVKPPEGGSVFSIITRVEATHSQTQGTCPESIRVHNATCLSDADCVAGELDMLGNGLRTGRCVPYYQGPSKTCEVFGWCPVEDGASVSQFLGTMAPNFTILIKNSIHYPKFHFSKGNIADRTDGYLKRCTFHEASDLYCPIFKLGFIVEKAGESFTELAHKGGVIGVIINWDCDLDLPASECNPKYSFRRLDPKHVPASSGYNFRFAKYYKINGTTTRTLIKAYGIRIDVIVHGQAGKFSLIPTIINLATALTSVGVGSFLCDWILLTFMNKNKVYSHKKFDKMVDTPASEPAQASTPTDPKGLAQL

[4] = biological target: T4, hP2X2R (human P2X2 receptor) (Homo sapiens, UniProt Q9UBL9, R130E); assay: whole-cell patch clamp in HEK293 cells, EDTA solution
T4 construct: gene P2RX2; hP2X2-L
T4 sequence (Q9UBL9 1-471 R130E): T1 sequence (Q9UBL9 1-471 R130A) with A130E

[5] = biological target: T1, hP2X2R (human P2X2 receptor); assay: as above

| SMILES | whole-cell patch clamp in HEK293 cells (weak activation) [1] | whole-cell patch clamp in HEK293 cells (weak activation) [2] | EC50 [3] [nM] | EC50 [4] [µM] | EC50 [5] [µM] |
| --- | --- | --- | --- | --- | --- |
| Nc1ncnc2c1ncn2[C@@H]1O[C@H](COP(=O)(O)CP(=O)(O)OP(=O)(O)O)[C@@H](O)[C@H]1O [α,β-Methylene-ATP] | α,β-Methylene-ATP could only weakly activate either WT hP2X2 or the R130A mutant | α,β-Methylene-ATP could only weakly activate either WT hP2X2 or the R130A mutant |  |  |  |
| Nc1ncnc2c1ncn2[C@@H]1O[C@H](COP(=O)(O)OP(=O)(O)OP(=O)(O)O)[C@@H](O)[C@H]1O [ATP] |  |  | 1400 ± 400 | 4 ± 0.9 | 3.7 ± 0.9 |
